Measurements as given in article PMC8541342, “Expression, Purification and Refolding of a Human NaV1.7 Voltage Sensing Domain with Native-like Toxin Binding Properties” (Toxins, 2021).
“Also recorded” adds a separate entry of the source.

Key:
[1] = test system: mice; conditions: ref [9]; cited from earlier work
Excerpt: This system opens up possibilities for detailed biophysical studies of binding interactions with toxins and other drug candidates for the development of new non-addictive pain therapeutics targeting NaV1.7. In addition, because the protein is expressed in E. coli, it also enables the preparation of isotope-labeled samples or the introduction of unnatural amino acids for structural and functional studies.

[2] = test system: full-length NaV1.7; conditions: cited from earlier work
[3] = test system: F813A and D816A mutants of NaV1.7 VSD2 in DMPC vesicles; assay: MST binding to mutant VSD2 compared with WT (overlay, Figure S6); parameters: species or system human; conditions: F813A and D816A vs WT VSD2 in DMPC
Procedure: (Supplementary Material, Figure S5). […] Lastly, it is additional confirmation that our recombinant system captures details of the interactions that correspond to those with full-length channel in native membranes.
The analysis of the MST binding titrations was carried out with the NanoTemper analy sis software, and the relative fluo-rescence measurements and fitted binding cur ves were combined into a single graph to illustrate the rightshift (lower binding affinity) in both mutants. Based on this analysis, both Phe 813 and Asp 816 appear to play an important role in […]

[4] = Dynamic light scattering particle size; assay type: physicochemical; conditions: DLS, VSD2 in DMPC ~40 μM, fixed-angle, 25 °C, spherical geometry assumed
Procedure: A Brookhaven NanoBrook series instrument was used to perform dynamic light scattering (DLS). The sample in this experiment was the VSD in DMPC solution prepared as described above at a concentration of ~40 μM. Sample was placed into a 1 cm quartz cuvette, and fixed-angle DLS was performed at 25 °C. Measurements of fixed-angle scattering were averaged over time intervals and, therefore, gave the correlation function, which in turn yielded the particle size distribution (assuming exponential correlation), reported as diameter in nm. This processing was done using the NanoBrook instrument analysis software. Particle size analysis assumes spherical geometry.

| Molecule | analgesic effects in mice (in words) [1] | IC50 [2] [µM] | change in binding affinity for mutants (in words) [3] | mean particle diameter / size distribution maximum [4] |
| --- | --- | --- | --- | --- |
| CC[C@H](C)[C@@H]1NC(=O)[C@@H]2CSSC[C@@H]3NC(=O)[C@H](C(C)C)NC(=O)[C@H](CC(C)C)NC(=O)[C@H](CC(N)=O)NC(=O)[C@@H]4CCCN4C(=O)[C@H](CCCNC(=N)N)NC(=O)[C@H](CSSC[C@H](NC(=O)[C@@H](N)CC(=O)O)C(=O)N[C@@H](CC(C)C)C(=O)NCC(=O)N[C@@H](Cc4ccccc4)C(=O)N[C@@H](CCSC)C(=O)N[C@@H](CCCNC(=N)N)C(=O)N[C@@H](CCCCN)C(=O)N2)NC(=O)[C@H](CSSC[C@@H](C(=O)N[C@@H](CCCCN)C(=O)N[C@@H](Cc2ccc(O)cc2)C(=O)N[C@H](C(=O)N[C@@H](Cc2ccccc2)C(=O)O)C(C)C)NC(=O)[C@H](Cc2c[nH]c4ccccc24)NC(=O)[C@H](CCCCN)NC(=O)[C@H](Cc2c[nH]cn2)NC(=O)[C@H]([C@@H](C)O)NC(=O)[C@H](CCCNC(=N)N)NC(=O)[C@H](CO)NC3=O)NC(=O)[C@H](CCCCN)NC(=O)[C@H](CC(=O)O)NC(=O)[C@H](CC(N)=O)NC(=O)[C@H](CC(=O)O)NC(=O)[C@@H]2CCCN2C1=O [GpTx-I] | analgesic effects superior to morphine in mice; also recorded: exhibits analgesic effects in mice | 0.01 | decreases in GpTx-I binding affinity; also recorded: substantial reduction in binding affinity | – |
| VSD2/DMPC complex: recombinant refolded NaV1.7 VSD of repeat II, residues 732–860 (UniProt ID Q15858-3), reconstituted into DMPC vesicles (protein) DPFVDLAITICIVLNTLFMAMEHHPMTEEFKNVLAIGNLVFTGIFAAEMVLKLIAMDPYEYFQVGWNIFDSLIVTLSLVELFLADVEGLSVLRSFRLLRVFKLAKSWPTLNMLIKIIGNSVGALGNLTL | – | – | – | roughly 80 nm |
